This passage reports IC50 results from US8420657B2 (Novartis AG, priority 2008, dated 2013).

Experiment [1] deals with JAK1/JAK2-dependent nuclear translocation of STAT1-GFP in HT1080 fibrosarcoma cells. Kind of experiment: STAT1 nuclear translocation assay (Cellomics), IFN-γ stimulated HT1080 STAT1-GFP cells. The conditions noted are these: Homo sapiens, HT-1080, STAT1 translocation pathway. Type of experiment: cell-based. The procedure, abridged: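 HT1080 cells stably expressing STAT1-GFP, pre-treated 30 min with compound (10 μM–0.003 μM, 0.1% DMSO), then stimulated 2 h with 100 ng/ml IFN-γ, fixed and Hoechst-stained. Nuclear-cytoplasmic GFP differential imaged over ≥1000 cells/well, normalised to unstimulated and DMSO-stimulated wells for IC50.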

Experiment [2] has as its target T1, GST-JAK2(808-1132) (Homo sapiens, UniProt O60674).
T1 construct: GST-JAK2(808-1132); purchased Invitrogen (Carlsbad, USA) #4288
In words: JAK2 kinase assay (Caliper mobility shift, LabChip 3000). Type of experiment: biochemical. In short, it runs like this:
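Recombinant GST-JAK2(808-1132) kinase domain with FITC-labelled JAK3tide peptide substrate and ATP; 60 min at 30 °C, EDTA stop. Substrate/product ratio read by microfluidic mobility shift; compounds at 8 final concentrations, 10 to 0.003 μM.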

T1 sequence (O60674 808-1132): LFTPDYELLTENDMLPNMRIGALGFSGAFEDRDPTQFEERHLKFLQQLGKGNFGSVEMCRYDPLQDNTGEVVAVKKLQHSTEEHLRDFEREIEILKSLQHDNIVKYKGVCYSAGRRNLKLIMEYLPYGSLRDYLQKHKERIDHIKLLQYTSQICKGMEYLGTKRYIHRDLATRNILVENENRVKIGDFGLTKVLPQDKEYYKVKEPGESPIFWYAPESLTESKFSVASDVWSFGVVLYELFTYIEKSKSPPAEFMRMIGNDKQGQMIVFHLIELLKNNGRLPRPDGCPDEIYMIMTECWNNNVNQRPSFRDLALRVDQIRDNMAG

For the compound `CC(=O)c1ccc(-n2ccc3cnc(Nc4ccc(F)cc4)nc32)cc1` [Example 60, 1-{4-[2-(4-Fluoro-phenylamino)-pyrrolo[2,3-d]pyrimidin-7-yl]-phenyl}-ethanone], the IC50 in experiment [1] turned out to be 4080 nM; in experiment [2], 8.1 nM.

Turning to `CC(C)Oc1ccc(Nc2ncc3ccn(-c4ccc(CN5CCCC5)cc4)c3n2)cc1` [Example 107, (4-Isopropoxy-phenyl)-[7-(4-pyrrolidin-1-ylmethyl-phenyl)-7H-pyrrolo[2,3-d]pyrimidin-2-yl]-amine], the IC50 turned out to be 1840 nM in experiment [1] and 8.1 nM in experiment [2].

`O=S1(=O)CCN(Cc2c(F)cc(-n3ccc4cnc(Nc5ccccc5)nc43)cc2F)CC1` [Example 180, {7-[4-(1,1-Dioxido-thiomorpholin-4-ylmethyl)-3,5-difluoro-phenyl]-7H-pyrrolo[2,3-d]pyrimidin-2-yl}-phenyl-amine]: the IC50 is 120 nM in experiment [1] and less than 3 nM in experiment [2].

Turning to `COc1cc(Nc2ncc3ccn(-c4ccc(CC(=O)N5CCOCC5)cc4)c3n2)ccc1F` [Example 142, 2-{4-[2-(4-Fluoro-3-methoxy-phenylamino)-pyrrolo[2,3-d]pyrimidin-7-yl]-phenyl}-1-morpholin-4-yl-ethanone], the IC50 in experiment [1] was 101 nM; in experiment [2] it was less than 3 nM.

As for `COCCn1cc(Nc2ncc3ccn(-c4cc(F)c(CN5CCOCC5)c(F)c4)c3n2)cn1` [Example 252, [7-(3,5-Difluoro-4-morpholin-4-ylmethyl-phenyl)-7H-pyrrolo[2,3-d]pyrimidin-2-yl]-[1-(2-methoxy-ethyl)-1H-pyrazol-4-yl]-amine], the IC50 came to 340 nM in experiment [1] and 3.3 nM in experiment [2].

On to `Cc1ccc(Nc2ncc3ccn(-c4cc(F)c(CN5CCS(=O)(=O)CC5)c(F)c4)c3n2)cc1Cl` [Example 129, (3-Chloro-4-methyl-phenyl)-{7-[4-(1,1-dioxido-thiomorpholin-4-ylmethyl)-3,5-difluoro-phenyl]-7H-pyrrolo[2,3-d]pyrimidin-2-yl}-amine], for which the IC50 in experiment [1] is 471 nM; in experiment [2], 9 nM.

As to `Cc1cc(-n2ccc3cnc(Nc4ccc(OC(C)C)cc4)nc32)ccc1CN1CCOCC1` [Example 111, (4-Isopropoxy-phenyl)-[7-(3-methyl-4-morpholin-4-ylmethyl-phenyl)-7H-pyrrolo[2,3-d]pyrimidin-2-yl]-amine], the IC50 in experiment [1] was determined as 846 nM; in experiment [2], 14.5 nM.

In the case of `O=C(c1c(F)cc(-n2ccc3cnc(Nc4ccncn4)nc32)cc1F)N1CCOCC1` [Example 218, {2,6-Difluoro-4-[2-(pyrimidin-4-ylamino)-pyrrolo[2,3-d]pyrimidin-7-yl]-phenyl}-morpholin-4-yl-methanone], the IC50 in experiment [1] is 10000 nM; in experiment [2], 1050 nM.

On to `Cc1ccc(Nc2ncc3ccn(-c4ccc(CC(=O)N5CCN(C)CC5)cc4)c3n2)cc1C` [Example 148, 2-{4-[2-(3,4-Dimethyl-phenylamino)-pyrrolo[2,3-d]pyrimidin-7-yl]-phenyl}-1-(4-methyl-piperazin-1-yl)-ethanone], for which the IC50 in experiment [1] was determined as 47 nM; in experiment [2] it was 7.9 nM.

In the case of `Cc1ccc(Nc2ncc3ccn(-c4ccc(CC(=O)N5CCOCC5)cc4)c3n2)cc1C` [Example 166, 2-{4-[2-(3,4-Dimethyl-phenylamino)-pyrrolo[2,3-d]pyrimidin-7-yl]-phenyl}-1-morpholin-4-yl-ethanone], the IC50 in experiment [1] was 145 nM; in experiment [2] it was 3.4 nM.

Turning to `O=C(c1cccc(Nc2ncc3ccn(-c4cc(F)c(CN5CCOCC5)c(F)c4)c3n2)c1)N1CCOCC1` [Example 202, {3-[7-(3 5-Difluoro-4-morpholin-4-ylmethyl-phenyl)-7H-pyrrolo[2,3-d]pyrimidin-2-ylamino]-phenyl}-morpholin-4-yl-methanone], the 50% inhibitory concentration (IC50) in experiment [1] came out at 198 nM; in experiment [2] it was 4.5 nM.

`CCOc1ccc(Nc2ncc3cc(C)n(-c4ccc(CN5CCOCC5)c(F)c4)c3n2)cc1OCC` [Example 168, (3,4-Diethoxy-phenyl)-[7-(3-fluoro-4-morpholin-4-ylmethyl-phenyl)-6-methyl-7H-pyrrolo[2,3-d]pyrimidin-2-yl]-amine]: the IC50 came to 3900 nM in experiment [1] and 30.5 nM in experiment [2].

As for `Cc1ccc(Nc2ncc3ccn(-c4ccc(CC(=O)N5CCN(CCO)CC5)cc4)c3n2)cc1C` [Example 212, 2-{4-[2-(3,4-Dimethyl-phenylamino)-pyrrolo[2,3-d]pyrimidin-7-yl]-phenyl}-1-[4-(2-hydroxy-ethyl)-piperazin-1-yl]-ethanone], the IC50 in experiment [1] is 106 nM; in experiment [2], less than 3 nM.

On to `COc1ccc(Nc2ncc3ccn(-c4ccc(S(C)(=O)=O)cc4)c3n2)cc1OCCN1CCOCC1` [Example 29, [7-(4-Methanesulfonyl-phenyl)-7H-pyrrolo[2,3-d]pyrimidin-2-yl]-[4-methoxy-3-(2-morpholin-4-yl-ethoxy)-phenyl]-amine], for which the IC50 in experiment [1] was 91 nM; in experiment [2] it was less than 3 nM.

Turning to `CN1CCN(C(=O)c2c(F)cc(-n3ccc4cnc(Nc5ccc(CN6CCOCC6)cc5)nc43)cc2F)CC1` [Example 192, {2,6-Difluoro-4-[2-(4-morpholin-4-ylmethyl-phenylamino)-pyrrolo[2,3-d]pyrimidin-7-yl]-phenyl}-(4-methyl-piperazin-1-yl)-methanone], the IC50 amounted to 1490 nM in experiment [1] and 11.5 nM in experiment [2].

As for `COc1cc(Nc2ncc3ccn(-c4ccc(C(=O)N5CCOCC5)cc4)c3n2)ccc1C` [Example 240, {4-[2-(3-Methoxy-4-methyl-phenylamino)-pyrrolo[2,3-d]pyrimidin-7-yl]-phenyl}-morpholin-4-yl-methanone], the IC50 in experiment [1] came out at 730 nM; in experiment [2], 5.2 nM.

Turning to `COc1ccc(Nc2ncc3ccn(-c4ccc(C(=O)N5CCS(=O)(=O)CC5)cc4)c3n2)cn1` [Example 250, (1,1-Dioxido-thiomorpholin-4-yl)-{4-[2-(6-methoxy-pyridin-3-ylamino)-pyrrolo[2,3-d]pyrimidin-7-yl]-phenyl}-methanone], the IC50 in experiment [1] was determined as 940 nM; in experiment [2], 9.1 nM.

In the case of `C[C@@H]1CN(c2ccc(Nc3ncc4ccn(-c5cc(F)c(CN6CCS(=O)(=O)CC6)c(F)c5)c4n3)cn2)C[C@H](C)N1` [Example 441, [6-(cis-3,5-Dimethyl-piperazin-1-yl)-pyridin-3-yl]-{7-[4-(1,1-dioxido-thiomorpholin-4-ylmethyl)-3,5-difluoro-phenyl]-7H-pyrrolo[2,3-d]pyrimidin-2-yl}-amine], the IC50 in experiment [1] is 45 nM; in experiment [2] it was not above 3 nM.

In the case of `CN1CCN(c2cccc(Nc3ncc4ccn(-c5ccc(S(C)(=O)=O)cc5)c4n3)c2)CC1` [Example 17, [7-(4-Methanesulfonyl-phenyl)-7H-pyrrolo[2,3-d]pyrimidin-2-yl]-[3-(4-methyl-piperazin-1-yl)-phenyl]-amine], the IC50 in experiment [1] is 20.5 nM; in experiment [2], less than 3 nM.

With `Cc1ccc(Nc2ncc3ccn(-c4ccc(C5(C(=O)N6CCN(C)CC6)CC5)cc4)c3n2)cc1Cl` [Example 117, (1-{4-[2-(3-Chloro-4-methyl-phenylamino)-pyrrolo[2,3-d]pyrimidin-7-yl]-phenyl}-cyclopropyl)-(4-methyl-piperazin-1-yl)-methanone], the figures for the IC50 in experiment [1] and in experiment [2] were 384 nM and 9.4 nM, respectively.

For `CN1CCN(c2ccc(Nc3ncc4ccn(-c5cc(F)c(C(=O)N6CCOCC6)c(F)c5)c4n3)cn2)CC1` [Example 221], the IC50 came out at 360 nM in experiment [1] and 4.7 nM in experiment [2].

Consider `Cc1ccc(Nc2ncc3ccn(-c4cc(F)c(CN5CCN(C6CC6)CC5)c(F)c4)c3n2)cc1C` [Example 306, {7-[4-(4-Cyclopropyl-piperazin-1-yl methyl)-3,5-difluoro-phenyl]-7H-pyrrolo[2,3-d]pyrimidin-2-yl}-(3,4-dimethyl-phenyl)-amine], for which the IC50 was determined as 550 nM in experiment [1] and 39.5 nM in experiment [2].

Turning to `CCOc1ccc(Nc2ncc3cc(C)n(-c4ccc(CC(=O)N5CCS(=O)(=O)CC5)c(F)c4)c3n2)cc1OCC` [Example 286, 2-{4-[2-(3,4-Diethoxy-phenylamino)-6-methyl-pyrrolo[2,3-d]pyrimidin-7-yl]-2-fluoro-phenyl}-1-(1,1-dioxido-thiomorpholin-4-yl)-ethanone], the IC50 in experiment [1] was 285 nM; in experiment [2], 10.6 nM.

In the case of `CCN1CCN(C(=O)Cc2cccc(Nc3ncc4ccn(-c5cc(F)c(CN6CCOCC6)c(F)c5)c4n3)c2)CC1` [Example 172, 2-{3-[7-(3,5-Difluoro-4-morpholin-4-ylmethyl-phenyl)-7H-pyrrolo[2,3-d]pyrimidin-2-ylamino]-phenyl}-1-(4-ethyl-piperazin-1-yl)-ethanone], the IC50 in experiment [1] was 220 nM; in experiment [2], less than 3 nM.

As for `CN1CCN(C(=O)c2cccc(Nc3ncc4ccn(-c5ccc(S(C)(=O)=O)cc5)c4n3)c2)CC1` [Example 39, {3-[7-(4-Methanesulfonyl-phenyl)-7H-pyrrolo[2,3-d]pyrimidin-2-ylamino]-phenyl}-(4-methyl-piperazin-1-yl)-methanone], the results for the IC50 in experiment [1] and in experiment [2] were 1370 nM and 14 nM, respectively.

Consider `CS(=O)(=O)c1ccc(-n2ccc3cnc(Nc4ccc(C5CCCN5)cc4)nc32)cc1` (stereo not drawn) [Example 53, [7-(4-Methanesulfonyl-phenyl)-7H-pyrrolo[2,3-d]pyrimidin-2-yl]-(4-pyrrolidin-2-yl-phenyl)-amine], for which the IC50 in experiment [1] is 90.5 nM; in experiment [2] it was less than 3 nM.

For the compound `O=C(c1ccc(Nc2ncc3ccn(-c4cc(F)c(CN5CCOCC5)c(F)c4)c3n2)cn1)N1CCOCC1` [Example 195, {5-[7-(3,5-Difluoro-4-morpholin-4-ylmethyl-phenyl)-7H-pyrrolo[2,3-d]pyrimidin-2-ylamino]-pyridin-2-yl}-morpholin-4-yl-methanone], the figures for the concentration for half-maximal inhibition (IC50) in experiment [1] and in experiment [2] were 352 nM and 5.3 nM, respectively.
